A word on the EC80: it is the concentration at which the effect reaches the 80% level. A high value points to weaker potency. For orientation: IC50 means the concentration at which inhibition is half-maximal. Low values mean greater potency in that assay, high ones weaker potency in that assay.

The target of one test is T1, MTNR1A (Homo sapiens, UniProt P48039).
T1 construct: purchased Eurofins DiscoverX (PathHunter gpcrMAX)
Kind of test: PathHunter β-arrestin assay. Format: cell-based. The following applies: screen, control agonist; CHO, 37C, 2HR.

A further test deals with CB1. Also on record: method as in PMID 20599795. The following applies: 10 nM, 15 min application; not recovered up to 5 h later; cited from earlier work.
In another test the target is HRH2 (Homo sapiens, UniProt P25021). Briefly: PathHunter β-arrestin assay. Format: cell-based. The following applies: control agonist.
The next test addresses HRH4 (Homo sapiens, UniProt Q9H3N8). The conditions noted are these: screen, control agonist; U20S, 37C, 4HR.
A further test concerns the target OXTR (Homo sapiens, UniProt P30559). Kind of test: PathHunter β-arrestin assay. Format: cell-based. The following applies: follow-up assays, control antagonist.
The target of another test is T2, LTB4R (Homo sapiens, UniProt Q15722).
T2 construct: purchased Eurofins DiscoverX (PathHunter gpcrMAX)
Kind of test: PathHunter β-arrestin assay. It is filed as cell-based. The conditions noted are these: screen, control agonist; CHO, 37C, 2HR.

A further test concerns the target T3, HCRTR1 (Homo sapiens, UniProt O43613).
T3 sequence (O43613 1-425): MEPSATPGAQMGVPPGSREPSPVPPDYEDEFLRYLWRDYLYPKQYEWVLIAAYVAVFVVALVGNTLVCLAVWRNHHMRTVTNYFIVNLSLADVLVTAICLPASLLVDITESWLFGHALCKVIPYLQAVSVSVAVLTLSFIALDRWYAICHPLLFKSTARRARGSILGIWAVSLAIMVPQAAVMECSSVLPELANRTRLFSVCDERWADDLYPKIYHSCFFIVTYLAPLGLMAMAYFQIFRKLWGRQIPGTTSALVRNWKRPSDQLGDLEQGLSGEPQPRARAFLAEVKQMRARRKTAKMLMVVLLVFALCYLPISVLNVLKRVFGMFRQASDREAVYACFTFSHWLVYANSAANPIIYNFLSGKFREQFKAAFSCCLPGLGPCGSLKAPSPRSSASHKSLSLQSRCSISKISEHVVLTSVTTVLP
Briefly: PathHunter β-arrestin assay. Format: cell-based. The conditions noted are these: follow-up assays, control antagonist. On the procedure: Follow up experiments were prioritized based on the difference between S/N and CoV. Targets with a >5-fold difference between S/N and CoV were investigated for their potential contribution to the AMB-FUBINACA toxidrome with 10-point concentration-response curves generated in technical replicate (range 1.5–30 μM) using the EC80 of the relevant agonist, where applicable in antagonist mode. Simultaneous agonist and antagonist curves were run in parallel to ensure reliability of the assay (see Supplementary Table 2), with both RC50 and signal to background aligning with historical averages, and Z' >0.5. RC50 was estimated using a four-parameter fit (CBIS Data Analysis Suite, ChemInnovation, San Diego, CA) on normalized data.

The target of the next test is HCRTR2 (Homo sapiens, UniProt O43614). Kind of test: PathHunter β-arrestin assay. The following applies: follow-up assays, control antagonist. It is filed as cell-based.
Another test addresses UTR2 (Homo sapiens, UniProt Q9UKP6). Kind of test: PathHunter β-arrestin assay. It is filed as cell-based. The conditions noted are these: follow-up assays, control antagonist.
The target in another test is T4, HTR2A (Homo sapiens, UniProt P28223).
T4 construct: purchased Eurofins DiscoverX (PathHunter gpcrMAX)
Kind of test: PathHunter β-arrestin assay. Format: cell-based. The conditions noted are these: screen, control agonist; U20S, 37C, 2HR.

The target of another test is T5, HTR1A (Homo sapiens, UniProt P08908).
T5 construct: purchased Eurofins DiscoverX (PathHunter gpcrMAX)
Briefly: PathHunter β-arrestin assay. It is filed as cell-based. The following applies: screen, control agonist; CHO, 37C, 2HR.

The target in another test is T6, HTR1F (Homo sapiens, UniProt P30939).
T6 construct: purchased Eurofins DiscoverX (PathHunter gpcrMAX)
Briefly: PathHunter β-arrestin assay. Format: cell-based. The conditions noted are these: screen, control agonist; U20S, 37C, 2HR.

For the next test, the target named is T7, HTR1B (Homo sapiens, UniProt P28222).
T7 construct: purchased Eurofins DiscoverX (PathHunter gpcrMAX)
Kind of test: PathHunter β-arrestin assay. Format: cell-based. The conditions noted are these: screen, control agonist; U20S, 37C, 2HR.

The target of a further test is T8, HTR5A (Homo sapiens, UniProt P47898).
T8 construct: purchased Eurofins DiscoverX (PathHunter gpcrMAX)
Kind of test: PathHunter β-arrestin assay. Format: cell-based. The following applies: screen, control agonist; U20S, 37C, 2HR.

The next test deals with T9, HTR1E (Homo sapiens, UniProt P28566).
T9 construct: purchased Eurofins DiscoverX (PathHunter gpcrMAX)
Briefly: PathHunter β-arrestin assay. It is filed as cell-based. The conditions noted are these: screen, control agonist; U20S, 37C, 2HR.

A further test addresses T10, ADORA3 (Homo sapiens, UniProt P0DMS8).
T10 construct: host or cells: CHO
Kind of test: PathHunter β-arrestin assay. Format: cell-based. The following applies: follow-up assays, control antagonist.

The structures appear in SMILES notation.

Chain of HRH2 (P25021 whole entry): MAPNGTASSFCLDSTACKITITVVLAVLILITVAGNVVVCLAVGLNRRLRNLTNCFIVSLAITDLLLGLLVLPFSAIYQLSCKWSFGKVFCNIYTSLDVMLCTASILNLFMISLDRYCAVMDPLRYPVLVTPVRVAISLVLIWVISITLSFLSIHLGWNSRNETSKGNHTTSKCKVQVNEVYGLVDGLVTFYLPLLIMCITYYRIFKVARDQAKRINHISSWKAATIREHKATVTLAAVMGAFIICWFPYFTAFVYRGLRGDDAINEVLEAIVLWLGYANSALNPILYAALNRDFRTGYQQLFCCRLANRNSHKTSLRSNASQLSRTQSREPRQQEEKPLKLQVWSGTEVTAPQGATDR
Chain of HCRTR2 (O43614 whole entry): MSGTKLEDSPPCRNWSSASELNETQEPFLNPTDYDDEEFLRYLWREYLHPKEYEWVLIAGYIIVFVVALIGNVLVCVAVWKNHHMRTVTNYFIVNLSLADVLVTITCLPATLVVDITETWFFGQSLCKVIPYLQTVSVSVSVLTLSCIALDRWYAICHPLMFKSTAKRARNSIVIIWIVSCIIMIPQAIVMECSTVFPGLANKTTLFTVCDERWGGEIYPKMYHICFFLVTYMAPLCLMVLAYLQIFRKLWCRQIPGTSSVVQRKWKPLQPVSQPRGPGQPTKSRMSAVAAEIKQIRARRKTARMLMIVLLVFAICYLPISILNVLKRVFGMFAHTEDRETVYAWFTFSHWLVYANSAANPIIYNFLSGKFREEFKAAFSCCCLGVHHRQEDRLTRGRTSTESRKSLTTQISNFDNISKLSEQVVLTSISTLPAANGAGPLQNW
T1 sequence (P48039 whole entry): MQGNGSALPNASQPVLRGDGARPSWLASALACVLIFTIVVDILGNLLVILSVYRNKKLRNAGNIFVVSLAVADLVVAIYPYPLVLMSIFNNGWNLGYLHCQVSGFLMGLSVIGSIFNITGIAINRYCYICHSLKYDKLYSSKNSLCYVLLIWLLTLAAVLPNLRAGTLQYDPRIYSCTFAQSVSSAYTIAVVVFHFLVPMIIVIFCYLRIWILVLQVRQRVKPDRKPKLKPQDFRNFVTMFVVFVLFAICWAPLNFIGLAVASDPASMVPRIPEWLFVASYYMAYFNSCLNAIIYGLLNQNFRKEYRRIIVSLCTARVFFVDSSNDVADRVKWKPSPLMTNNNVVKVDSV
Chain of OXTR (P30559 whole entry): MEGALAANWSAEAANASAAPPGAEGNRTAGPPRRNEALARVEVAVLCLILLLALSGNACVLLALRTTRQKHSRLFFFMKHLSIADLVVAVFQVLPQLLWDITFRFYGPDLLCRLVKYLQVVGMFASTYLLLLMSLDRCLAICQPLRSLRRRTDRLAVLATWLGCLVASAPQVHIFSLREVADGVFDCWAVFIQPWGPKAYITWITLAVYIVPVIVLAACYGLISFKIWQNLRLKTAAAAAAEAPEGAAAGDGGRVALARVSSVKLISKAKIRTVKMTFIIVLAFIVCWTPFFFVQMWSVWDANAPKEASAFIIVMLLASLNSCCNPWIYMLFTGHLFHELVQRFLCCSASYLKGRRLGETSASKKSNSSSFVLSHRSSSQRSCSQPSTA
T5 sequence (P08908 whole entry): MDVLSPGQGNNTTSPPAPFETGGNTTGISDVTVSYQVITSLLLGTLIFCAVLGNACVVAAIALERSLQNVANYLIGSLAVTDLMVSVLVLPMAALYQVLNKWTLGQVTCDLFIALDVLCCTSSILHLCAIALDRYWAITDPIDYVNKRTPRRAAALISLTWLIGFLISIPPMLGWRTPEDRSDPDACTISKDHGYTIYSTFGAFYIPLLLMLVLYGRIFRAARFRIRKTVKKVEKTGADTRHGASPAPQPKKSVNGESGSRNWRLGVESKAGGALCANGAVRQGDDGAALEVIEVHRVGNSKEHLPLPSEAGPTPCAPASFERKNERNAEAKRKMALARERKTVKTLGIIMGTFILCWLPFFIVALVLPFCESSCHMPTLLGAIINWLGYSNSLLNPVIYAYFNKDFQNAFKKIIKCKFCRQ
T6 sequence (P30939 whole entry): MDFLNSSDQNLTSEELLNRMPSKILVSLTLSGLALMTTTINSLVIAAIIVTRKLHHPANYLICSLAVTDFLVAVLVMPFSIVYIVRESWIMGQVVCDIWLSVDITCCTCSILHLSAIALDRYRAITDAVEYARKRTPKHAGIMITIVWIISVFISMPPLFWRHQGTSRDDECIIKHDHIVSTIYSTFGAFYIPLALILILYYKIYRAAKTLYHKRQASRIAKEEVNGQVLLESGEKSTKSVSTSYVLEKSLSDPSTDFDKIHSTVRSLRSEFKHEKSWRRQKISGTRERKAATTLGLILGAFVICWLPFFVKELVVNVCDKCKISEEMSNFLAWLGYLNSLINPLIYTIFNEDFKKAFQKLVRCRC
T9 sequence (P28566 whole entry): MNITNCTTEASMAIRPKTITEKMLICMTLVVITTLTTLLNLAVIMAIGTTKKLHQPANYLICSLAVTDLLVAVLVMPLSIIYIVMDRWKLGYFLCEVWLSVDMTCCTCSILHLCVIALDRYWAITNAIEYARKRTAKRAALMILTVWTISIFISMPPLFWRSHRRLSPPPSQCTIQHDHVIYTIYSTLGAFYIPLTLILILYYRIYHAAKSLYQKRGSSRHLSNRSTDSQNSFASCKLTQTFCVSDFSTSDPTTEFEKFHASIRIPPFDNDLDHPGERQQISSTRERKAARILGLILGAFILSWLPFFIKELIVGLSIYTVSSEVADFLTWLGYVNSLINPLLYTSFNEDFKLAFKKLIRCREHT
Chain of HRH4 (Q9H3N8 whole entry): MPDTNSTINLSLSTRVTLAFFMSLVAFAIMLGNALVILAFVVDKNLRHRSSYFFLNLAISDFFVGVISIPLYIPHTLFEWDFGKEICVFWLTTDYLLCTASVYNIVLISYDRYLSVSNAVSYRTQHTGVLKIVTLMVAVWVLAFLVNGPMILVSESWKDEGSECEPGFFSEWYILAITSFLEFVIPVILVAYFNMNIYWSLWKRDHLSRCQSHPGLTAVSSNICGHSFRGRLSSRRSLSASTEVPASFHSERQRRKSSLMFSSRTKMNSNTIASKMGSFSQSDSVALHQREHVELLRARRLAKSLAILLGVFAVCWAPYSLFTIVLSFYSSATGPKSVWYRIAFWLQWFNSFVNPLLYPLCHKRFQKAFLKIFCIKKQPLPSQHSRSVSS
T8 sequence (P47898 whole entry): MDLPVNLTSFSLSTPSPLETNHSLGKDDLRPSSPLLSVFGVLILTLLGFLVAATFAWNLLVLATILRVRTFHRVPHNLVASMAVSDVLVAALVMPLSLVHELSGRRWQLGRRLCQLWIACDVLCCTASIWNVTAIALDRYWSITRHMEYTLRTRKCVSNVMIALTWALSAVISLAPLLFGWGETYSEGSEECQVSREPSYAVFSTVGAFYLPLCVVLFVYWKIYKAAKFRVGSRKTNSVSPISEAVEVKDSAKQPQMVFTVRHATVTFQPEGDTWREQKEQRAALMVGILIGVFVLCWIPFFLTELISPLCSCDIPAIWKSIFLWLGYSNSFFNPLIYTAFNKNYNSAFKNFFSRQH
T7 sequence (P28222 whole entry): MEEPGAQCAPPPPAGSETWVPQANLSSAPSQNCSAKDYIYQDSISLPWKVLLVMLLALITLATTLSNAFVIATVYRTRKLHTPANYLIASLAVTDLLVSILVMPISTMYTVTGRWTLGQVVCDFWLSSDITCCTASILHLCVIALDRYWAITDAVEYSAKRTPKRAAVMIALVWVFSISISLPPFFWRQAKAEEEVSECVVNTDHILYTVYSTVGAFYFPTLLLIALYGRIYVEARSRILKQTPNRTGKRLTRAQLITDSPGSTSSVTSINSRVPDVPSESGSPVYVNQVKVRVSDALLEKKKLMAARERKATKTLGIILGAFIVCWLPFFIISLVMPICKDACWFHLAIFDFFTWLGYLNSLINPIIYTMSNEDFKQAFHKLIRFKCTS
T10 sequence (P0DMS8 whole entry): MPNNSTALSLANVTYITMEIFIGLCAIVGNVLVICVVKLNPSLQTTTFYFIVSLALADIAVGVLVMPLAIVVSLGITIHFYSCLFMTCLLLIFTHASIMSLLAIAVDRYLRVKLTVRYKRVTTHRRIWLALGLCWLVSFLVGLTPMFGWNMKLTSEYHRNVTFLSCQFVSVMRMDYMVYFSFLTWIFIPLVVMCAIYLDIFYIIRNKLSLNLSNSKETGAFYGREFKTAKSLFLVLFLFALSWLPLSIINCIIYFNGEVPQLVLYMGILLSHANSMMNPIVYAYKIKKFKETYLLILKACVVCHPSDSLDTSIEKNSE
Chain of UTR2 (Q9UKP6 whole entry): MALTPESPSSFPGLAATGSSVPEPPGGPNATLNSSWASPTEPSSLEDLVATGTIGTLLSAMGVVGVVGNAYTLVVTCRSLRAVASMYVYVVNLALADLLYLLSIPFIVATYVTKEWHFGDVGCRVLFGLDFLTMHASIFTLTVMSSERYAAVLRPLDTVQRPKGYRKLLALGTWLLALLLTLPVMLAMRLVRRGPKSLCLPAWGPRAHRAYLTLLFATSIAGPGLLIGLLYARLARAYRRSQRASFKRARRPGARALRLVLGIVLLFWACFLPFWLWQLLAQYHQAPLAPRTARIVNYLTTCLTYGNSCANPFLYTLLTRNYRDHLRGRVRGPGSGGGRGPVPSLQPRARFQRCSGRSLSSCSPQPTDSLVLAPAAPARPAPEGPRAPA
T2 sequence (Q15722 whole entry): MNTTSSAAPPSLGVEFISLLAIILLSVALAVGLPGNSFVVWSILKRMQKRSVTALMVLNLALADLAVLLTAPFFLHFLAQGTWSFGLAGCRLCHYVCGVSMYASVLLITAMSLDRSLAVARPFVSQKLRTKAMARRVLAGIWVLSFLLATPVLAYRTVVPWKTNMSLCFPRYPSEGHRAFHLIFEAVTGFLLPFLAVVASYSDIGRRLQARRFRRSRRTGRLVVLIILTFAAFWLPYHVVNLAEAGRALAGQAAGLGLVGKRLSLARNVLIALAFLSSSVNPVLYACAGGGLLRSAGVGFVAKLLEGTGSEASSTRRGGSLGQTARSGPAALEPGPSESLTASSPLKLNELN

In turn, `COc1ccc2[nH]c(I)c(CCNC(C)=O)c2c1` [2-Iodomelatonin] displayed an EC80 at MTNR1A of 2.77 nM.

As for `CCCCCCC(C)(C)c1cc(O)c2c(c1)OC(C)(C)[C@@H]1CC=C(CO)C[C@@H]21` [HU210], the CB1 internalization result in the test with CB1 is recorded as “near maximal internalization”.

As to `NCCc1c[nH]cn1` [Histamine], the EC80 turned out to be 10.722 µM at HRH2 (follow-up concentration-response assays); 10.7 µM on HRH2 (screen, CHO, RT, 2HR); 0.102 µM at HRH4.

Take `Cc1ccccc1N1CCN(S(=O)(=O)C[C@]23CC[C@H](C[C@@H]2NC(=O)[C@@H](N)CCS(C)(=O)=O)C3(C)C)CC1` [L-368,899]: the IC50 against OXTR was found to be 7.39 nM.

Regarding `CCCCC/C=C\C[C@@H](O)/C=C/C=C/C=C\[C@@H](O)CCCC(=O)O` [Leukotriene B4], the EC80 on LTB4R stood at 0.456 µM.

Turning to `Cc1cc(NC(=O)Nc2ccc(N(C)C)cc2)c2cc(F)cc(F)c2n1` [SB 408124], the half-inhibitory concentration (IC50) against HCRTR1 turned out to be 74.4 nM; against HCRTR2 it was 11.5 µM.

With `COc1cc(Br)c(S(=O)(=O)Nc2ccc(Cl)c(O[C@@H]3CCN(C)C3)c2)cc1OC` [SB 657510], on UTR2, half-maximal inhibition (IC50) required 122 nM.

As to `NCCc1c[nH]c2ccc(O)cc12` [Serotonin / 5-HT, Serotonin], the EC80 at HTR2A worked out at 0.171 µM; on HTR1A, 0.377 µM; on HTR1F, 0.127 µM; at HTR1B, 0.173 µM; at HTR5A, 0.0264 µM; at HTR1E, 0.0216 µM.

On ADORA3, `COc1ccccc1NC(=O)Nc1nc(-c2cccnc2)nc2ccccc12` [VUF 5574] yielded an IC50 of 3.73 nM.

(Values after paper PMC9798004 (Frontiers in Psychiatry, 2022).)
